In US9102667B2, “N-arylaminomethylene benzothiophenones for treatment of cardiovascular disease” (FORSCHUNGSVERBUND BERLIN E.V., priority 2011, dated 2015):
Like-named read-outs stand apart in the source and are kept apart here.

Columns and labels:
[1] = molecular target: AKAP-PKA interaction (Homo sapiens, UniProt P13861); experiment: AKAP-PKA interaction (disruption) assays of Examples 1-3: alpha screen, surface plasmon resonance, ELISA (combined classification); type: binding; conditions: for IC50 relative to that of the unsubstituted mother compound: alkyl substituent on heteroaromatic pentacycle
Protocol: The inhibition of the interaction of the alpha RII subunit of protein kinase A with AKAP18-alpha by the compounds according to the invention is determined as follows:
The experiment measures the suitability of candidate compounds for the inhibition of the interaction between AKAP and PKA. An AKAP-GST fusion construct is immobilized on glutathione donor beads and His-RII-alpha on Ni-chelate acceptor beads. To the extent that the partners interact, singlet oxygen from the donor beads becomes free and activates the fluorescence emission of the acceptor beads. The fluorescence emission determined in the microplate reader is proportional to the intensity of interaction of the protein partners. The IC50 is determined from the results of the measurement of several concentrations of one candidate compound.
The details of the process were as follows: Two protein Solutions A and B are produced in a buffer (phosphate NaCl buffer, 0.1% polysorbate 80, 0.1% [=1 mg/ml BSA]). These contain (A) the histidine-6-tagged fusion construct RII-alpha-His (3.125 nmol/l) and (B) the glutathione-S-transferase-tagged fusion construct GST-AKAP18-alpha-d2-10 (6.25 nmol/l). One volume unit each of protein solution and bead suspension are incorporated, specifically Solution A of the His6-tagged protein with Ni-chelate bead suspension and Solution B of the GST-fusion protein with glutathione beads (Perkin Elmer Product No. 6765302), and in doing so the concentrations are selected according to the manufacturers information. The Mixtures A and B obtained are incubated for one hour at room temperature (RT) in the dark.
Then, 5 μl of Mixture A is laid out for each hole on a 384-hole microtiter plate, and then to start with 0.5 μl of a solution of the candidate compound in DMSO is added and then 5 μl of Mixture B. The resulting reaction mixture is incubated 1 h at RT in the dark. Then, the reaction is tempered to 28.5° C., and the emitter intensity of the acceptor is determined in a microtiter plate reader after excitation of the donor at 680 nm.
The relative inhibition of the AKAP-PKA interaction is calculated following the formula: 1−(xc−y)/(z−y) where: X=average of readings (n=3) at concentration c; Y=average of measurement data from bead-bead check (n=6); Z=average of measurement data from protein-protein check (n=6). Results:
Surface plasmon resonance analyses for competition in solution were performed with streptavidin-coated sensor chips (GE Healthcare, Uppsala, Sweden). The N-terminal biotinylated peptide AKAP18d-L314E was used, which is a variant of the RH-binding domains of AKAP18δ (Hundsrucker et al., Biochem. J. 396, 297-306, [2006]). The binding of the regulatory subunit of the human PKAII-α or RII-β onto the peptide surface of the AKAP18δ-L314E, or the inhibition of this binding to RII by the compounds of the invention, was measured on a Biacaore 3000 machine (Biacore/GE Healthcare) as previously described (Henn et al., J Biol Chem 279, 26654-26665 [2004]). The compounds were injected for 60 sec at a flow rate of 30 μl/min, and the dissociation phase was measured for 180 sec.
Multititer plates (Corning B.V. Life Sciences, Schiphol-Rijk, Netherlands) were coated with recombinantly produced PKA RIIα (15 ng/hole) by incubation with phosphate buffer containing protease inhibitors (1 h, 22° C.). The plate was then blocked with lactoprotein.
GST-AKA7δ (Hundsrucker et al., Biochem. J. 396, 297-306, [2006]; 15 ng/well) was incubated with and without candidate compounds on the plate for 1 h at 22° C. After washing, it was incubated with antibodies (rabbit) against AKA7δ (A18δ3) and then with a peroxidase-conjugated antirabbit antibody and developed with dye substrate (LumiLight Western Blotting Substrate, Roche Diagnostics, Mannheim, Germany). Luminescence activity was determined in a microplate reader (GeniosPro, Tecan, Durham, N.C., United States) at 10 msec integration.

[2] = molecular target: PKA subunit RIIα (Homo sapiens, UniProt P13861); experiment: Microscale Thermophoresis (MST); type: binding; conditions: 20 mM Phosphate, pH 7.5, 100 mM NaCl, 0.05% Tween 20, 5% DMSO, 25° C.
Protocol: Microscale Thermophoresis (MST) were performed on a monolith NT machine (nano tember technologies, Munich, Germany) with exemplary compounds (T2/11, 15, 59) in 20 mM Phosphate, pH 7.5, 100 mM NaCl, 0.05% Tween 20 and 5% DMSO according to the general protocol provided by the manufacturer. Interaction partners were PKA subunit RIIα labelled with blue fluorescent dye NT-495; the parameters were: LED blue, LED Power 80%, Laser Power 20-80%, 25° C. A constant concentration of compounds was titrated with increasing concentrations of unlabelled PKA RIIα (50 nM, 100 nM, 250 nM, 500 nM, 1 μM, 2.5 μM, 5 μM, 10 μM, 25 μM, 50 μM, 100 μM and 200 μM).

[3] = system: TAC operated C57BL/6 mice; experiment: Echocardiography in the TAC model, Example 5a; type: in vivo
Protocol: Protocol: For intervention 12- to 14-week-old male C57BL/6 mice (Charles River Sulzfeld) were anesthetized by 2.4% isoflurane inhalation. Transverse aortic banding (TAC) was performed by tying a 7-0 prolene suture (Ethicon) ligature around the aorta and a blunted 26-gauge needle and subsequent removal of the needle. For sham controls the suture was not tied. TAC was confirmed by echocardiography and measurement of blood flow gradient 4 weeks after surgery. Next, mini-osmotic pumps (model 1004, Alzet) with T2/15 compound/vehicle were implanted i.p. Echocardiography was performed 2 and 4 weeks with compound treatment.
For echocardiography analyses mice were anesthetized by 2.4% isoflurane inhalation and ventricular measurements were done with a VisualSonics Vevo 2100 Imaging System equipped with a 45 MHz MS-550D MicroScan transducer. The observer was unaware of the genotypes and treatments.
Differences between experimental groups were analyzed using ANOVA test followed by Bonferroni's Multiple Comparison Test using Prism Graphpad 4. Data are presented as mean±SEM. P<0.05 values were considered significant.

[4] = class from IC50 values in assays of Examples 1, 2 or 3, read-out: Activity (IC50 class)
[5] = between 0.3 and 3 μg/kg/d, vs. DMSO

Sequence of AKAP-PKA interaction (P13861 2-404 limits assumed): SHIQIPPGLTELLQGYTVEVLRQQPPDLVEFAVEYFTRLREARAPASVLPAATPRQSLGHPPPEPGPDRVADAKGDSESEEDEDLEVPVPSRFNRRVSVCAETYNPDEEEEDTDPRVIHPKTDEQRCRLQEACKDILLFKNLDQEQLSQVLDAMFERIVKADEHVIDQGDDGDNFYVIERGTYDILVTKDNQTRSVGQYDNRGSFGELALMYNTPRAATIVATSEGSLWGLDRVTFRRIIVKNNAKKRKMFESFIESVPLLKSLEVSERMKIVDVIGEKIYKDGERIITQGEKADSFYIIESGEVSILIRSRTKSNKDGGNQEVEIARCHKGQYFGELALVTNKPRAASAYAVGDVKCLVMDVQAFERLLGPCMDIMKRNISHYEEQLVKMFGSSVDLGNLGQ
Sequence of PKA subunit RIIα (P13861 whole entry): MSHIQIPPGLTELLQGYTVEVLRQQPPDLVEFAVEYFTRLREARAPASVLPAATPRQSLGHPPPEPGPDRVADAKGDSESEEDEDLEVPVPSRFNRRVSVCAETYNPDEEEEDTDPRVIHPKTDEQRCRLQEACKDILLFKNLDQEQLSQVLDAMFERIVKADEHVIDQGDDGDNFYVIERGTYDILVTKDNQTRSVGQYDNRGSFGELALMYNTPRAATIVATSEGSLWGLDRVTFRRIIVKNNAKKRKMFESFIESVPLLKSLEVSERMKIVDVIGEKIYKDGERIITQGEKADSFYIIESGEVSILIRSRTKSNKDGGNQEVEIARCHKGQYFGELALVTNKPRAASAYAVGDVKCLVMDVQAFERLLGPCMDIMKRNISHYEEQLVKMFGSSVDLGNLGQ

SMILES | IC50 [1, 4] | also measured
Cc1cnc(N/C=C2\Sc3ccccc3C2=O)s1 [T2/11, (2Z)-2-[[(5-methylthiazole-2-yl)amino]methylene]benzothiophene-3-one] | < 150 µM | IC50 relative to that of the unsubstituted mother compound [1]: about 50%; Kd [2]: 31.9 µM
O=C1/C(=C/Nc2nc3c(F)cc(F)cc3s2)Sc2ccccc21 [T2/26, (2Z)-2-[[(4,6-difluoro-1,3-benzothiazole-2-yl)amino]methylene]benzothiophene-3-one] | 250 to 750 µM | –
O=C(O)c1ccc(N/C=C2\Cc3ccccc3C2=O)cc1 [T2/56, 4-[[(e)-(1-oxoindan-2-ylidene)methyl]amino]benzoic acid] | < 150 µM | –
O=C1/C(=C/Nc2nc3ccccc3s2)Oc2ccccc21 [T2/57, (2Z)-2-[(1,3-benzothiazole-2-ylamino)methylene]benzofuran-3-one] | 250 to 750 µM | –
O=C1/C(=C/Nc2nnc(Br)s2)Sc2ccccc21 [T2/32, (2Z)-2-[[(5-bromo-1,3,4-thiadiazol-2-yl)amino]methylene]benzothiophene-3-one] | < 150 µM | –
O=C1/C(=C/Nc2ncns2)Sc2ccccc21 [T2/30, (2Z)-2-[(1,2,4-thiadiazol-5-ylamino)methylene]benzothiophene-3-one] | < 150 µM | –
Cc1coc(N/C=C2\Sc3ccccc3C2=O)n1 [T2/4, (2Z)-2-[[(4-methyloxazole-2-yl)amino]methylene]benzothiophene-3-one] | < 50 µM | –
N#Cc1cnc(N/C=C2\Sc3ccccc3C2=O)s1 [T2/15, 2-[[(z)-(3-oxobenzothiophene-2-ylidene)methyl]amino]thiazole-5-carbonitrile] | < 25 µM | cardiac function [3, 5]: improved function; heart rate or -mass [3, 5]: without increasing; wall dimensions and cavity diameter (IVSd, LVPWd, LVEDd) ([3]; echocardiography, i.p. mini-osmotic pump, 2 and 4 weeks treatment): no significant effect; HW/TL (heart weight normalized against tibia length) ([3]; treatment vs. DMSO, FIG. 6): has an effect on HW/TL; Kd [2]: 98.1 µM
COC(=O)c1csc(N/C=C2\Sc3ccccc3C2=O)n1 [T2/18, 2-[[(z)-(3-oxobenzothiophene-2-ylidene)methyl]amino]thiazole-4-carboxylic acid methylester] | < 150 µM | –
NC(=O)c1cnc(N/C=C2\Sc3ccccc3C2=O)s1 [T2/19, 2-[[(z)-(3-oxobenzothiophene-2-ylidene)methyl]amino]thiazole-5-carboxylic acid amide] | < 150 µM | –
Cc1csc(N/N=C2\Sc3ccccc3C2=O)n1 [T2/51, (2Z)-2-[(4-methylthiazole-2-yl)hydrazono]benzothiophene-3-one] | < 25 µM | –
O=C1/C(=C/Nc2nc3cc(Cl)ccc3o2)Sc2ccccc21 [T2/5, (2Z)-2-[[(5-chloro-1,3-benzoxazole-2-yl)amino]methylene]benzothiophene-3-one] | 250 to 750 µM | –
O=C(O)c1cnc(N/C=C2\Sc3ccccc3C2=O)s1 [T2/16, 2-[[(z)-(3-oxobenzothiophene-2-ylidene)methyl]amino]thiazole-5-carboxylic acid] | < 250 µM | –
O=C1/C(=C/Nc2ncc([N+](=O)[O-])s2)Sc2ccccc21 [T2/12, (2Z)-2-[[(5-nitrothiazole-2-yl)amino]methylene]benzothiophene-3-one] | < 25 µM | IC50 ([1]; absolute values stated in structure-activity text, method not specified, read-out: IC50): 1 to 5 µM
O=C1/C(=C/Nc2nncs2)Sc2ccccc21 [T2/31, (2Z)-2-[(1,3,4-thiadiazol-2-ylamino)methylene]benzothiophene-3-one] | < 150 µM | –
Cc1csc(N/C=C2\Sc3ccccc3C2=O)n1 [T2/10, (2Z)-2-[[(4-methylthiazole-2-yl)amino]methylene]benzothiophene-3-one] | – | IC50 relative to that of the unsubstituted mother compound [1]: about 50%
O=C1/C(=C/Nc2nc3ccc(C(F)(F)F)cc3s2)Sc2ccccc21 [T2/27, (2Z)-2-[[[6-(trifluoromethyl)-1,3-benzothiazole-2-yl]amino]methylene]benzothiophene-3-one] | 250 to 750 µM | –
O=C1/C(=C/Nc2ncc(Cl)s2)Sc2ccccc21 [T2/14, (2Z)-2-[[(5-chlorothiazole-2-yl)amino]methylene]benzothiophene-3-one] | < 150 µM | –
O=C1/C(=C/Nc2ncc3ccccc3n2)Sc2ccccc21 [T2/42, (2Z)-2-[(chinazolin-2-ylamino)methylene]benzothiophene-3-one] | 250 to 750 µM | –
O=C1/C(=C/Nc2nc3ccccc3[nH]2)Sc2ccccc21 [T2/2, (2Z)-2-[(1H-benzimidazole-2-ylamino)methylene]benzothiophene-3-one] | < 150 µM | –
COc1ccc2nc(N/C=C3\Sc4ccccc4C3=O)sc2c1 [T2/24, (2Z)-2-[[(6-methoxy-1,3-benzothiazole-2-yl)amino]methylene]benzothiophene-3-one] | < 150 µM | –
N=C(N)c1cnc(N/C=C2\Sc3ccccc3C2=O)s1 [T2/21, 2-[[(Z)-(3-oxobenzothiophen-2-ylidene)methyl]amino]thiazole-5-carboxamidine] | – | Activity (IC50 class) ([1]; class from IC50 values in assays of Examples 1, 2 or 3): 2-[[(Z)-(3-oxobenzothiophen-2-ylidene)methyl]amino]thiazole-5-carboxamidine Activity: A/B
O=C1/C(=C\Nc2ccc([N+](=O)[O-])cc2)Sc2ccccc21 [T2/34, (2e)-2-[(4-nitroanilino)methylene]benzothiophene-3-one] | 250 to 750 µM | –
CNC(=O)c1cnc(N/C=C2\Sc3ccccc3C2=O)s1 [T2/20, n-methyl-2-[[(z)-(3-oxobenzothiophene-2-ylidene)methyl]amino]thiazole-5-carboxylic acid amide] | < 250 µM | –
O=C(O)c1cnc(N/N=C2\Sc3ccccc3C2=O)s1 [T2/53, 2-[(2Z)-2-(3-oxobenzothiophene-2-ylidene)hydrazino]thiazole-5-carboxylic acid] | < 25 µM | –
O=C1/C(=C/Nc2nc3ccccc3s2)Cc2ccccc21 [T2/55, (2e)-2-[(1,3-benzothiazole-2-ylamino)methylene]indane-1-one] | < 250 µM | –
